Source: patent US20080027117A1, “Antifungal Azole Derivatives Having a Fluorovinyl Moiety and Process for the Preparation Thereof” (KOREA RESERACH INSTIITUTE OF CHEMICAL TECHNOLOGY, priority 2003, published 2008)
Converted amounts (≈) assume the structure as drawn. Read-outs that look alike come from different tables or passages of the source.

How the values were obtained:
CYP 3A4 = CYP 3A4 (Homo sapiens, UniProt P08684); test: Hepatic toxicity: Midazolam 1′-hydroxylase in human hepatic microsomes; conditions: read-out: IC50 Midazolam 1′-hydroxylase CYP 3A4; human hepatic microsomes 0.5 mg/ml, 37° C., 20 min, LC-MS
Sequence of CYP 3A4 (P08684 whole entry): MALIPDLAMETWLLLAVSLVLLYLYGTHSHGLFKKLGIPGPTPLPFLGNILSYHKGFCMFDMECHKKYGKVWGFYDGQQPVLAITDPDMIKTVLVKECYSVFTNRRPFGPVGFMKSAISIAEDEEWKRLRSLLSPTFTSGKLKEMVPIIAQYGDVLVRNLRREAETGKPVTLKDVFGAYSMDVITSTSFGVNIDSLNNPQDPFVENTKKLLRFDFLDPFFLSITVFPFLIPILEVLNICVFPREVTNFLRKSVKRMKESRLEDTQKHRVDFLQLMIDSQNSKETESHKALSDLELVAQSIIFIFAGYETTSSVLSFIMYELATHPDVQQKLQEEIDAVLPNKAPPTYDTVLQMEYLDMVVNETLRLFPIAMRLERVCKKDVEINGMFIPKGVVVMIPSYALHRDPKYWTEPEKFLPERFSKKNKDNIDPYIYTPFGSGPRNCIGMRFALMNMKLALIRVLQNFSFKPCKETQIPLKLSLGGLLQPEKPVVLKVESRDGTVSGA
Procedure: (§1) After incubating at 37° C. for 20 min, 200 μl of each resulting solution was mixed with 100 μl of acetonitrile, and analyzed with LC-MS (LC column: Luna2 C8, 2×100 mm, flow velocity: 0.2 ml/min, MS system: Quattro LC (micromass)) using a 5% MeOH aqueous solution containing 0.1% formic acid as an eluent.

CYP 2A6 = target: T1, CYP 2A6 (Homo sapiens, UniProt P11509); test: Hepatic toxicity: Coumarin 7-hydroxylase in human hepatic microsomes
T1 sequence (P11509 1-494): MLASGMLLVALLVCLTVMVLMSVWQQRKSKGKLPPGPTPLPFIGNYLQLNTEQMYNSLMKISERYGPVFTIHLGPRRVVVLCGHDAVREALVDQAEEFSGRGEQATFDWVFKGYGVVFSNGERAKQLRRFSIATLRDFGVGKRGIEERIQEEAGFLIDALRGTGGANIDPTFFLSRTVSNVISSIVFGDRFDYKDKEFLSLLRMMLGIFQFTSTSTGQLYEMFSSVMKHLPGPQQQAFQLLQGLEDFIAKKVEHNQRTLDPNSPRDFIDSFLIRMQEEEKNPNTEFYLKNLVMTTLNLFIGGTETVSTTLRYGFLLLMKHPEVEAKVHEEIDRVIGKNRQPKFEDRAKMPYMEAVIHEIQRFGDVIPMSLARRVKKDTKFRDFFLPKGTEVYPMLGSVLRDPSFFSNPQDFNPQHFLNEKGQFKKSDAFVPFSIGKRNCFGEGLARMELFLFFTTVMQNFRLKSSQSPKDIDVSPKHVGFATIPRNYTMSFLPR
Procedure: as §1

CYP 2C19 = CYP 2C19 (Homo sapiens, UniProt P33261); test: Hepatic toxicity: Mephenytoin 4-hydroxylase in human hepatic microsomes
Sequence of CYP 2C19 (P33261 whole entry): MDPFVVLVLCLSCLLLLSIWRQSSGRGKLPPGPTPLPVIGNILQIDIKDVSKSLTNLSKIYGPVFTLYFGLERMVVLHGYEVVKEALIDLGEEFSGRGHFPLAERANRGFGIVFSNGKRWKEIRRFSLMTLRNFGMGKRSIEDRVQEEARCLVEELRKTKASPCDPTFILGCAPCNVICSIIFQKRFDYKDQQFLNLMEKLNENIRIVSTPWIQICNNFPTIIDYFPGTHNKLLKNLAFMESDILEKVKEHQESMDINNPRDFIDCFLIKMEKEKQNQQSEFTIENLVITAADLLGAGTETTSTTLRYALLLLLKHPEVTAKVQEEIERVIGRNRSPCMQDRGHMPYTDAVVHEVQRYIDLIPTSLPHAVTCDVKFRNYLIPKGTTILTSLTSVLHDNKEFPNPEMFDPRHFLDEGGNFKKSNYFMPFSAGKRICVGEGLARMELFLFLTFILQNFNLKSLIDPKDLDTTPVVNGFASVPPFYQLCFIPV
Procedure: as §1

CYP 2C9 = CYP 2C9 (Homo sapiens, UniProt P11712); test: Hepatic toxicity: Diclofenac 4′-hydroxylase in human hepatic microsomes
Sequence of CYP 2C9 (P11712 whole entry): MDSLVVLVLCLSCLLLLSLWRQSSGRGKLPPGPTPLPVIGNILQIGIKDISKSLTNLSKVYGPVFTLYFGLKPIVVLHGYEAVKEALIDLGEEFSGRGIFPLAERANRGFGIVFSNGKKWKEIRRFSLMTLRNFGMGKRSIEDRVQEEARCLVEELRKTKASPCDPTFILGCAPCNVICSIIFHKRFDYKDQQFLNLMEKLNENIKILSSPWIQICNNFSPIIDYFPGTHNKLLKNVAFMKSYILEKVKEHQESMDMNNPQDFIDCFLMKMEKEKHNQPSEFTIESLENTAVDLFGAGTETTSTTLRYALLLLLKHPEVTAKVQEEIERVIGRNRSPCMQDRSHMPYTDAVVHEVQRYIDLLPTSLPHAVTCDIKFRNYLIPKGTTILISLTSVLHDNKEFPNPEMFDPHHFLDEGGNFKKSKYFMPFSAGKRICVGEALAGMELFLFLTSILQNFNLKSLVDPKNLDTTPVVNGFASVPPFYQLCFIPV
Procedure: as §1

CYP 2C8 = target: T2, CYP 2C8 (Homo sapiens, UniProt P10632); test: Hepatic toxicity: Paclitaxel 6 α-hydroxylase in human hepatic microsomes
T2 sequence (P10632 1-490): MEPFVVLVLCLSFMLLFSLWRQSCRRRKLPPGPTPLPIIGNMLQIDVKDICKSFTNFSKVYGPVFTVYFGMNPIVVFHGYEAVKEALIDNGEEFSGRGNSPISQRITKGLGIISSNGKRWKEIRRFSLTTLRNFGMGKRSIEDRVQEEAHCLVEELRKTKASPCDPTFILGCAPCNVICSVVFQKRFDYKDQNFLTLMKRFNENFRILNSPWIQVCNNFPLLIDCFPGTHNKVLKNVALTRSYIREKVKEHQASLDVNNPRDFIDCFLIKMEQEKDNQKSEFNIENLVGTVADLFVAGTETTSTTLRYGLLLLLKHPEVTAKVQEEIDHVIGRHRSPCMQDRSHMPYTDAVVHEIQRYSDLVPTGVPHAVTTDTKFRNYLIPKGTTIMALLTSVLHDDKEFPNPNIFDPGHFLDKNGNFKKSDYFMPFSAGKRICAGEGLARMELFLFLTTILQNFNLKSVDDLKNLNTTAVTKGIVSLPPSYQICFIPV
Procedure: as §1

CYP 2D6 = CYP 2D6 (Homo sapiens, UniProt P10635); test: Hepatic toxicity: Bufuralol 1′-hydroxylase in human hepatic microsomes
Sequence of CYP 2D6 (P10635 whole entry): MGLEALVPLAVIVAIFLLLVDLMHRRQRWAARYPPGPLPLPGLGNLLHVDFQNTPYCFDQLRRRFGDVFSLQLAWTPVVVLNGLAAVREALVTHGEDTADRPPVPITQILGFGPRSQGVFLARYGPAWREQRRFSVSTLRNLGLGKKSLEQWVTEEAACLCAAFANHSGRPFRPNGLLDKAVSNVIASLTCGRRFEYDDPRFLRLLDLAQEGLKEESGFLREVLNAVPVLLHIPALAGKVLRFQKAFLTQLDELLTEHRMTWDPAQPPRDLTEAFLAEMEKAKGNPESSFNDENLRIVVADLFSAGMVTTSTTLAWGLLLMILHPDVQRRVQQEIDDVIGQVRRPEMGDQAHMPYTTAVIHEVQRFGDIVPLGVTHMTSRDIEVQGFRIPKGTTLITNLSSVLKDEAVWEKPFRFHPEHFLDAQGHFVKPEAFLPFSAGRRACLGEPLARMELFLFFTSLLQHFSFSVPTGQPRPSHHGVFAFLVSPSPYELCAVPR
Procedure: as §1

CYP 1A2 = target: T3, CYP 1A2 (Homo sapiens, UniProt P05177); test: Hepatic toxicity: Phenacetin O-deethylase in human hepatic microsomes
T3 sequence (P05177 1-516): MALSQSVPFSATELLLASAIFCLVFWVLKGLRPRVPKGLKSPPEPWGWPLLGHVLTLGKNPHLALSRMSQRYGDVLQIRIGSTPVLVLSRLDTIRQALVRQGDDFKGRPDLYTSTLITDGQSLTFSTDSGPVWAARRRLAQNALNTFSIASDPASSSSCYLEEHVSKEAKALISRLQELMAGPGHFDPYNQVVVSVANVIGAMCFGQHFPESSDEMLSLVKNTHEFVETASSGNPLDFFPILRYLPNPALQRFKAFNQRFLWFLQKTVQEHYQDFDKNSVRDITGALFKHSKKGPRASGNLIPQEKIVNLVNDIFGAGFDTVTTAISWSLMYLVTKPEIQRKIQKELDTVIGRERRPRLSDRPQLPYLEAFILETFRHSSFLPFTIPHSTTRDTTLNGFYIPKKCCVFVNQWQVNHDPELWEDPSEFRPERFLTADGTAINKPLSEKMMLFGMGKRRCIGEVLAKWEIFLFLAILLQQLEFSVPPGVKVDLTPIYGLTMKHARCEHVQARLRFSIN
Procedure: as §1

ICR mice = test: Toxicity of oral administration; type: in vivo; conditions: oral administration in DMSO, observed over 2 weeks
Procedure: Specific pathogen-free ICR mice, 2 females and 2 males were used for the each testing. The compound of Example 40 of the present invention was dissolved in DMSO and the solution was orally administered in doses of 62, 125, 250, 500, 1,000 and 2,000 mg of the compound/kg of the body weight (10 ml of the sample volume/kg of the body weight).

C. neoformans ATCC 36556 = test: In vitro antifungal activity, microbroth dilution (MIC80); type: cell-based; conditions: lowest concentration reducing growth by 80% relative to untreated control; RPMI-1640, 35° C.
Procedure: (§2) Sabourad Dextrose Agar (Difco), YM Agar or Potato Dextrose Agar was used as a culture medium according to ATCC information, and RPMI-1640 broth (Sigma. Co. w/L-glutamine, wo/NaHCO3)(0.165 M MOPS, pH 7.0), as a dilution medium. […] In the case of yeasts, the turbidity (light absorbance) of the suspension was adjusted to 0.108 at 530 nm, and then the suspension was diluted 1000-fold with sterile RPMI-1640 liquid medium to 1.0103˜5.0103 CFU/ml. The turbidity of fungi was adjusted to 80˜82% and the suspension was diluted 50-fold to 0.4102˜0.5104 CFU/ml. […] 0.1 ml portions of the test solutions were added to the wells of a sterile 96 well plate. Then, 0.1 ml portions of each test strain solutions were added successively to the wells and the plate was incubated at 35° C. for […]. Minimal inhibitory concentration (MIC80) of each compound was determined as the lowest concentration of the test compounds required to reduce growth by 80% relative to a control strain not treated.

Candida krusei ATCC 6258 = test: as above; type: cell-based; conditions: lowest concentration reducing growth by 80% relative to untreated control; RPMI-1640, 35° C.
Procedure: as §2

[1] = tested on: Candida albicans ATCC 10231; test: as above; type: cell-based; conditions: lowest concentration reducing growth by 80% relative to untreated control; RPMI-1640, 35° C.
Procedure: as §2

A. fumigatus ATCC 16424 = test: as above; type: cell-based; conditions: lowest concentration reducing growth by 80% relative to untreated control; RPMI-1640, 35° C.
Procedure: as §2

Candida albicans MYA-573 = test: as above; type: cell-based; conditions: lowest concentration reducing growth by 80% relative to untreated control; RPMI-1640, 35° C.
Procedure: as §2

SMILES | IC50 (CYP 3A4) [µM] | IC50 (CYP 2A6; microsomes) [µM] | IC50 (CYP 2C19; microsomes) [µM] | IC50 (CYP 2C9; microsomes) [µM] | IC50 (CYP 2C8; microsomes) [µM] | IC50 (CYP 2D6; microsomes) [µM] | IC50 (CYP 1A2; microsomes) [µM] | MIC Range (MIC80) C. neoformans ATCC 36556 (C. neoformans ATCC 36556) | MIC Range (MIC80) Candida krusei ATCC 6258 (Candida krusei ATCC 6258) | MIC Range (MIC80) Candida albicans ATCC 10231 [1] | MIC Range (MIC80) A. fumigatus ATCC 16424 (A. fumigatus ATCC 16424) | MIC Range (MIC80) Candida albicans MYA-573 (Candida albicans MYA-573) | other results
CC(n1ccn(-c2ccc(OC(F)=C(c3ccc(Cl)cc3)C(F)(F)F)cc2)c1=O)C(O)(Cn1cncn1)c1ccc(F)cc1F (mixture of isomers) [Example 121] | > 100 | > 100 | > 100 | > 100 | 41.2 | > 100 | > 100 |  |  |  |  |  | 
CC(n1cnc(-c2ccc(OC(F)=Cc3ccc(Cl)cc3)cc2)n1)C(O)(Cn1cncn1)c1ccc(F)cc1F (stereo not drawn) [Example 40] | > 100 | > 100 | > 100 | > 100 | 30.1 | > 100 | > 100 |  |  |  |  |  | LD50 (ICR mice): approximately 1,750 mg/kg; fetal dose (ICR mice): 1,000˜2,000 mg/kg
OC(Cn1cncn1)(Cn1cncn1)c1ccc(F)cc1F [Fluconazole, reference compound] |  |  |  |  |  |  |  | 16~32 μg/ml | 32~64 μg/ml | 2~4 μg/ml |  |  | IC50 (CYP 2A6): > 100 µM; IC50 (CYP 2C8): > 100 µM; IC50 (CYP 2D6): 44.2 µM; IC50 (CYP 1A2): > 100 µM
C[C@@H]1[C@H](O)[C@@H](C)/C=C/C=C/C=C/C=C/C=C/C=C/C=C/[C@H](O[C@@H]2O[C@H](C)[C@@H](O)[C@H](N)[C@@H]2O)C[C@@H]2O[C@](O)(C[C@@H](O)C[C@@H](O)[C@H](O)CC[C@@H](O)C[C@@H](O)CC(=O)O[C@H]1C)C[C@H](O)[C@H]2C(=O)O [Amphotericine B, reference compound] |  |  |  |  |  |  |  | 0.25~1 μg/ml | 1 µg/mL (≈ 1.08 µM) | 0.5~1 μg/ml | 0.5~1 μg/ml | 1~2 μg/ml | 
CC(OC(F)=Cc1ccc(Oc2ccccc2)cc1)C(O)(Cn1cncn1)c1ccc(F)cc1F (stereo not drawn) [Example 15] |  |  |  |  |  |  |  | 0.5 µg/mL (≈ 1.04 µM) | 4 µg/mL (≈ 8.31 µM) | 1 µg/mL (≈ 2.08 µM) | >256 µg/mL | 1 µg/mL (≈ 2.08 µM) | 
COc1cccc(C(=C(F)OC(C)C(O)(Cn2cncn2)c2ccc(F)cc2F)C(F)(F)F)c1 (stereo not drawn) [Example 13] |  |  |  |  |  |  |  | 16 µg/mL (≈ 32.8 µM) | >64 µg/mL | >64 µg/mL | >64 µg/mL |  | 
CC(N1CCN(c2ccc(OC(F)=Cc3cccc(Cl)c3)cc2)C1=O)C(O)(Cn1cncn1)c1ccc(F)cc1F (mixture of isomers) [Example 111] | > 100 | > 100 | > 100 | > 100 | > 100 | > 100 | > 100 |  |  |  |  |  | 
COc1ccc(C(=C(F)Oc2ccc(-c3ncn(C(C)C(O)(Cn4cncn4)c4ccc(F)cc4F)n3)cc2)C(F)(F)F)cc1 (stereo not drawn) [Example 32] | > 100 |  |  |  |  |  |  |  |  |  |  |  | IC50 (CYP 2A6; read-out: IC50 Coumarin 7-hydroxylase CYP 2A6, human hepatic microsomes 0.5 mg/ml, 37° C., 20 min, LC-MS): > 100 µM; IC50 (CYP 2C19; read-out: IC50 Mephenytoin 4-hydroxylase CYP 2C19, human hepatic microsomes 0.5 mg/ml, 37° C., 20 min, LC-MS): > 100 µM; IC50 (CYP 2C9; read-out: IC50 Diclofenac 4′-hydroxylase CYP 2C9, human hepatic microsomes 0.5 mg/ml, 37° C., 20 min, LC-MS): > 100 µM; IC50 (CYP 2C8; read-out: IC50 Paclitaxel 6 α-hydroxylase CYP 2C8, human hepatic microsomes 0.5 mg/ml, 37° C., 20 min, LC-MS): 19.9 µM; IC50 (CYP 2D6; read-out: IC50 Bufuralol 1′-hydroxylase CYP 2D6, human hepatic microsomes 0.5 mg/ml, 37° C., 20 min, LC-MS): > 100 µM; IC50 (CYP 1A2; read-out: IC50 Phenacetin O-deethylase CYP 1A2, human hepatic microsomes 0.5 mg/ml, 37° C., 20 min, LC-MS): > 100 µM
CC(=O)N1CCN(c2ccc(OCC3COC(Cn4ccnc4)(c4ccc(Cl)cc4Cl)O3)cc2)CC1 (stereo not drawn) [ketoconazole, reference compound] |  |  |  |  |  |  |  |  |  |  |  |  | IC50 (CYP 2A6): > 100 µM
CC(OC(F)=C(c1ccccc1)C(F)(F)F)C(O)(Cn1cncn1)c1ccc(F)cc1F (stereo not drawn) [Example 5] |  |  |  |  |  |  |  | 4 µg/mL (≈ 8.75 µM) | >16 µg/mL | 2~4 μg/ml | >16 µg/mL | >256 µg/mL | 
